Reference: US20060275873A1, “Autoinducer compound to improve the productivity of natamycin streptomyces strains” (priority 2003, published 2006)
“Also recorded” adds a separate entry of the source.

Experiments:
[1] = system: Streptomyces natalensis ATCC 27448; assay: Natamycin production in liquid cultures of the wild type strain with exogenous auto inducer; assay type: cell-based; conditions: 300 nM
Description: FIG. 3A: Cell dry weight (▪); y-axis: dry weight concentration in mg/ml; x-axis: time in hours. FIG. 3B: (▴) Control without IP factor addition; (O) with IP factor addition; y-axis: natamycin concentration in μg/ml; x-axis: time in hours.
FIG. 4A: Cell dry weight (♦); y-axis: dry weight concentration in mg/ml; x-axis: time in hours. FIG. 4B: (▪) Control without IP factor addition; (□) with IP factor addition; y-axis: natamycin concentration in μg/ml; x-axis: time in hours.
FIG. 5A: Cell dry weight (▴); y-axis: dry weight concentration in mg/ml; x-axis: time in hours. FIG. 5B: (▪) Control without IP factor addition; (□) with IP factor addition; y-axis: natamycin concentration in μg/ml; x-axis: time in hours.
Four different complex media were used for quantification of the IP factor concentration and its relationship to natamycin production. These include: NBG medium (OXOID) supplemented with glucose (5 g/l); YEME medium (yeast extract 3 g/l; peptone […]; malt extract 3 g/l and glucose 10 g/l); TSB medium (DIFCO) and YED medium (yeast extract 10 g/l; glucose 10 g/l). In addition two defined media were also used to quantify the inducer production: Streptomyces MM (Kieser et al. in “Practical Streptomyces Genetics”, John Innes Foundation, Norwich, UK, 2000) and Lechevalier defined medium (Martin and McDaniel, Eur. J. Appl. Microbiol. 3, 135-144, 1976).
The production of natamycin in liquid cultures was routinely quantified by spectrophotometric determination at 319 nm. A 0.5 ml aliquot of the culture was extracted with 5 ml of methanol and diluted with distilled water; the concentration of natamycin was quantified as described previously (Aparicio et al. (Chem. Biol. 7, 895-905, 2000)) using a pure sample of natamycin (Sigma Chem. Co) as standard.

[2] = Solvent extraction of clarified culture broth (partition between organic and aqueous phase); assay type: physicochemical
Protocol: The culture broth (15 liters) from Streptomyces natalensis wild type strain grown for 24 h in YED medium in a Braun Biostat C fermentor was concentrated 10-fold in a vacuum evaporator. The concentrated broth was clarified by precipitating the proteins with 6M HCl at pH 3.0 in the cold room. The clarified broth was adjusted to pH 7.0 with concentrated NaOH and extracted. […] Enough IP factor could be extracted by repeated extractions with ethyl acetate to allow a good purification. The organic phases were then collected and concentrated to dryness under vacuum and the resultant product was dissolved in 100 ml of 10% methanol (v/v) and applied to an active carbon column (30×3 cm) previously equilibrated with the same solvent (10% methanol, v/v). The retained compounds including the IP factor were fractionated by stepwise elution (flow 2 ml/min) with 50% methanol (v/v), 100% methanol, 10% ethyl acetate in methanol (v/v), 50% ethyl acetate in methanol (v/v), and pure ethyl acetate (100%). […] The IP factor-containing fraction was then concentrated, applied onto a Sephadex GIO column (2000×1 cm) and eluted with distilled water (flow 0.8 ml/min). This size exclusion chromatography yielded 40 ml of active fractions.

[3] = system: Streptomyces natalensis npi287; assay: Inducer bioassay: induction of natamycin production in mutant npi287 on solid SPG medium, read as inhibition zone in a Candida utilis overlay; assay type: cell-based; conditions: for inducing activity on natamycin production by npi287: bioassay, Streptomyces natalensis npi287
Protocol: Dose-response representation is obtained from measuring points at 0, 110, 166, 220, 333, 446 and 500 nM of IP factor. Y-axis: natamycin-induced inhibition zone diameter in Candida utilis overlays in cm (see Example 5); x-axis: concentration of IP factor in nM.
The biological activity of IP factor was determined by its ability to induce natamycin production by mutant strain Streptomyces natalensis npi287 in solid SPG medium. After allowing growth of Streptomyces natalensis npi287 for 2 days at 30° C., samples of culture broths […] or different fractions from IP factor purification were added to wells (7 mm diameter) in the agar layer. The plate was overlaid with a culture of Candida utilis and incubated for 24 h at 28° C. The increment of the diameter of the natamycin inhibition zone after induction of natamycin in strain npi287 was proportional to the amount of IP factor in the sample.
The availability of the pure IP factor made it possible to quantify its inducing effect using the standard inducer assay with the npi287 strain (FIG. 2). […] The IP factor increased two-fold the diameter of natamycin inhibition zone (to above 50 millimeters) at concentration of 350 nM and the assay was saturated at concentrations above 400 nM. A threshold level of IP factor of about 50 nM was always required to detect the induction of natamycin production.

[4] = system: Streptomyces griseus HH1; assay: Restoration of streptomycin production in the A factor negative strain; assay type: cell-based; conditions: HPLC-pure IP factor, Streptomyces griseus HH1 mutant
Description: In the examples given below, the following strains were used: The wild type Streptomyces natalensis ATCC 27448 was used as the parental strain to isolate different npi mutants. Streptomyces natalensis cultures were maintained in solid TBO sporulation medium (containing 20 g tomato paste per liter; 25 g oat meal per liter; and 25 g agar per liter) as described by Aparicio et al. (Chem. Biol. 7, 895-905, 2000). Candida utilis CECT 1061 (synonym Pichia jadinii) was used as test strain in the bioassay of the antifungal activity of natamycin. Cultures of Streptomyces griseus IFO 13350 (formerly described as Streptomyces bikiniensis IFO 13350) were used to produce A factor in YMPG medium (Horinouchi et al., J. Antibiot. 38, 636-641, 1985). Streptomyces griseus HH1 (an A factor negative strain) was used to quantify the A factor inducing activity.
The Streptomyces griseus 35570 A factor was purified by following its biological activity on the test strain Streptomyces griseus HH1, a mutant lacking streptomycin production due to its deficiency in A factor biosynthesis.

[5] = system: Streptomyces natalensis (wild type and npi287 mutant); assay: Stimulation of sporulation of Streptomyces natalensis; assay type: cell-based
[6] = system: Streptomyces griseus HH1; conditions: stated as well-known; cited from earlier work

| SMILES | production of natamycin on addition of exogenous inducer ([1]; NBG medium, FIG. 4) | production of natamycin on addition of exogenous inducer ([1]; TSB medium, FIG. 3) | production of natamycin on addition of exogenous inducer ([1]; YEME medium, FIG. 5) | part remaining in the aqueous phase ([2]; ethyl acetate extraction at acidic, neutral or slightly basic (pH 7.5) pH) | part remaining in the aqueous phase ([2]; repeated extraction with chloroform) | diameter of natamycin inhibition zone ([3]; 350 nM IP factor) | fold increase of the diameter of natamycin inhibition zone ([3]; 350 nM IP factor) | inducing activity on natamycin production by npi287 [3] | threshold level required to detect induction of natamycin production ([3]; standard inducer assay) | IP factor concentration to which npi287 clearly responded ([3]; standard inducer assay, FIG. 2) | concentration above which the assay was saturated ([3]; standard inducer assay, FIG. 2) | upper concentration of linear response of antibiotic production ([3]; standard inducer assay, FIG. 2) | restoration of streptomycin production [4] | stimulation of sporulation ([5]; npi287 mutant) | stimulation of sporulation ([5]; wild type Streptomyces natalensis) | stimulation of sporulation [6] |
| --- | --- | --- | --- | --- | --- | --- | --- | --- | --- | --- | --- | --- | --- | --- | --- | --- |
| NC(CO)(CO)C(N)(CO)CO [IP factor, 2,3-diamino-2,3-bis(hydroxymethyl)-1,4-butanediol] | stimulated | stimulated | stimulated | significant proportion | about 80% | above 50 millimeters | two-fold | strong inducing activity | about 50 nM | 100 nM | above 400 nM | up to 350 nM | negative | did not stimulate sporulation | did not stimulate sporulation | – |
| CC(C)CCCCC(=O)[C@@H]1C(=O)OCC1CO (stereo partly drawn) [A factor, 2-(6′-methylheptanoyl)-3R-hydroxymethyl-4-butanolide, reference compound] | – | – | – | – | – | – | – | some inducing activity; also recorded: elicited natamycin production | – | – | – | – | – | – | – | stimulation of sporulation |
